# In ChEMBL document CHEMBL3797178, “Synthesis, antimycobacterial and antibacterial activity of 1-(6-amino-3,5-difluoropyridin-2-yl)fluoroquinolone derivatives containing an oxime functional moiety” (2016):
# Key:
# Format in all cases: functional
# [1] = system: Mycobacterium tuberculosis; experiment: Antimycobacterial activity against Mycobacterium tuberculosis H37Rv ATCC 27294 after 3 days by microplate Alamar Blue assay; conditions: H37Rv ATCC 27294, 72 h
# [2] = system: Escherichia coli; experiment: Antibacterial activity against Escherichia coli ATCC 25922 after 18 to 24 hrs by CLSI M100-S11 method
# [3] = system: Escherichia coli; experiment: Antibacterial activity against extended-spectrum beta-lactamase-producing Escherichia coli 14-1 after 18 to 24 hrs by CLSI M100-S11 method
# [4] = system: Escherichia coli; experiment: Antibacterial activity against extended-spectrum beta-lactamase-producing Escherichia coli 14-2 after 18 to 24 hrs by CLSI M100-S11 method
# [5] = system: Escherichia coli; experiment: Antibacterial activity against Escherichia coli 14-1 after 18 to 24 hrs by CLSI M100-S11 method
# [6] = system: Escherichia coli; experiment: Antibacterial activity against Escherichia coli 14-2 after 18 to 24 hrs by CLSI M100-S11 method
# [7] = system: Klebsiella pneumoniae; experiment: Antibacterial activity against extended-spectrum beta-lactamase-producing Klebsiella pneumoniae 14-17 after 18 to 24 hrs by CLSI M100-S11 method
# [8] = system: Klebsiella pneumoniae; experiment: Antibacterial activity against extended-spectrum beta-lactamase-producing Klebsiella pneumoniae 14-18 after 18 to 24 hrs by CLSI M100-S11 method
# [9] = system: Klebsiella pneumoniae; experiment: Antibacterial activity against extended-spectrum beta-lactamase-producing Klebsiella pneumoniae 14-19 after 18 to 24 hrs by CLSI M100-S11 method
# [10] = system: Klebsiella pneumoniae; experiment: Antibacterial activity against Klebsiella pneumoniae 14-1 after 18 to 24 hrs by CLSI M100-S11 method
# [11] = system: Klebsiella pneumoniae; experiment: Antibacterial activity against Klebsiella pneumoniae 14-2 after 18 to 24 hrs by CLSI M100-S11 method
# [12] = system: Klebsiella pneumoniae; experiment: Antibacterial activity against Klebsiella pneumoniae 14-3 after 18 to 24 hrs by CLSI M100-S11 method
# [13] = system: Klebsiella pneumoniae; experiment: Antibacterial activity against Klebsiella pneumoniae 14-4 after 18 to 24 hrs by CLSI M100-S11 method
# [14] = system: Pseudomonas aeruginosa; experiment: Antibacterial activity against Pseudomonas aeruginosa ATCC 27853 after 18 to 24 hrs by CLSI M100-S11 method
# [15] = system: Pseudomonas aeruginosa; experiment: Antibacterial activity against Pseudomonas aeruginosa 14-9 after 18 to 24 hrs by CLSI M100-S11 method
# [16] = system: Pseudomonas aeruginosa; experiment: Antibacterial activity against Pseudomonas aeruginosa 14-14 after 18 to 24 hrs by CLSI M100-S11 method
# [17] = system: Pseudomonas aeruginosa; experiment: Antibacterial activity against Pseudomonas aeruginosa 14-15 after 18 to 24 hrs by CLSI M100-S11 method
# [18] = system: Pseudomonas aeruginosa; experiment: Antibacterial activity against Pseudomonas aeruginosa 14-16 after 18 to 24 hrs by CLSI M100-S11 method
# [19] = system: Pseudomonas aeruginosa; experiment: Antibacterial activity against Pseudomonas aeruginosa 14-19 after 18 to 24 hrs by CLSI M100-S11 method
# [20] = system: Staphylococcus aureus; experiment: Antibacterial activity against Staphylococcus aureus CMCC 26003 after 18 to 24 hrs by CLSI M100-S11 method
# [21] = system: Staphylococcus aureus; experiment: Antibacterial activity against methicillin-sensitive Staphylococcus aureus 14-2 after 18 to 24 hrs by CLSI M100-S11 method
# [22] = system: Staphylococcus aureus; experiment: Antibacterial activity against methicillin-sensitive Staphylococcus aureus 14-3 after 18 to 24 hrs by CLSI M100-S11 method
# [23] = system: Staphylococcus aureus; experiment: Antibacterial activity against methicillin-sensitive Staphylococcus aureus 14-4 after 18 to 24 hrs by CLSI M100-S11 method
# [24] = system: Staphylococcus aureus; experiment: Antibacterial activity against methicillin-resistant Staphylococcus aureus 14-4 after 18 to 24 hrs by CLSI M100-S11 method
# [25] = system: Staphylococcus aureus; experiment: Antibacterial activity against methicillin-resistant Staphylococcus aureus 14-5 after 18 to 24 hrs by CLSI M100-S11 method
# [26] = system: Staphylococcus epidermidis; experiment: Antibacterial activity against methicillin-sensitive Staphylococcus epidermidis 14-2 after 18 to 24 hrs by CLSI M100-S11 method
# [27] = system: Staphylococcus epidermidis; experiment: Antibacterial activity against methicillin-sensitive Staphylococcus epidermidis 14-4 after 18 to 24 hrs by CLSI M100-S11 method
# [28] = system: Staphylococcus epidermidis; experiment: Antibacterial activity against methicillin-sensitive Staphylococcus epidermidis 14-6 after 18 to 24 hrs by CLSI M100-S11 method
# [29] = system: Staphylococcus epidermidis; experiment: Antibacterial activity against methicillin-resistant Staphylococcus epidermidis 14-22 after 18 to 24 hrs by CLSI M100-S11 method
# [30] = system: Staphylococcus epidermidis; experiment: Antibacterial activity against methicillin-resistant Staphylococcus epidermidis 14-37 after 18 to 24 hrs by CLSI M100-S11 method
# [31] = system: Streptococcus pneumoniae; experiment: Antibacterial activity against Streptococcus pneumoniae ATCC 19615 after 18 to 24 hrs by CLSI M100-S11 method
# [32] = system: Enterococcus faecium; experiment: Antibacterial activity against Enterococcus faecium 14-1 after 18 to 24 hrs by CLSI M100-S11 method
# [33] = system: Enterococcus faecium; experiment: Antibacterial activity against Enterococcus faecium 14-2 after 18 to 24 hrs by CLSI M100-S11 method
# [34] = system: Enterococcus faecalis; experiment: Antibacterial activity against Enterococcus faecalis 14-1 after 18 to 24 hrs by CLSI M100-S11 method
# [35] = system: Enterococcus faecalis; experiment: Antibacterial activity against Enterococcus faecalis 14-2 after 18 to 24 hrs by CLSI M100-S11 method
# [36] = system: Enterococcus faecalis; experiment: Antibacterial activity against Enterococcus faecalis 14-3 after 18 to 24 hrs by CLSI M100-S11 method
# [37] = system: Staphylococcus epidermidis; experiment: Antibacterial activity against methicillin-resistant Staphylococcus epidermidis 14-39 after 18 to 24 hrs by CLSI M100-S11 method
Structure (SMILES),MIC [1] [mg/L],MIC [2] [mg/L],MIC [3] [mg/L],MIC [4] [mg/L],MIC [5] [mg/L],MIC [6] [mg/L],MIC [7] [mg/L],MIC [8] [mg/L],MIC [9] [mg/L],MIC [10] [mg/L],MIC [11] [mg/L],MIC [12] [mg/L],MIC [13] [mg/L],MIC [14] [mg/L],MIC [15] [mg/L],MIC [16] [mg/L],MIC [17] [mg/L],MIC [18] [mg/L],MIC [20] [mg/L],MIC [21] [mg/L],also measured
CO/N=C1\CCN(c2nc3c(cc2F)c(=O)c(C(=O)O)cn3-c2nc(N)c(F)cc2F)CC1O (stereo unspecified),30.7,64,64,> 128,> 128,> 128,> 128,> 128,> 128,> 128,> 128,> 128,> 128,128,128,128,128,128,2,2,MIC [19]: 128 mg/L; MIC [22]: 4 mg/L; MIC [23]: 4 mg/L; MIC [24]: > 128 mg/L; MIC [25]: 128 mg/L; MIC [26]: > 128 mg/L; MIC [27]: > 128 mg/L; MIC [28]: > 128 mg/L; MIC [29]: > 128 mg/L; MIC [30]: > 128 mg/L; MIC [31]: 64 mg/L; MIC [32]: > 128 mg/L; MIC [33]: 64 mg/L; MIC [34]: > 128 mg/L; MIC [35]: > 128 mg/L; MIC [36]: > 128 mg/L
Nc1nc(-n2cc(C(=O)O)c(=O)c3cc(F)c(N4CC/C(=N\OCc5ccccc5)C(N)C4)nc32)c(F)cc1F (stereo unspecified),> 32,64,128,> 128,> 128,> 128,> 128,> 128,> 128,> 128,> 128,> 128,> 128,128,128,128,128,128,8,8,MIC [19]: 128 mg/L; MIC [22]: 4 mg/L; MIC [23]: 8 mg/L; MIC [24]: > 128 mg/L; MIC [25]: > 128 mg/L; MIC [26]: > 128 mg/L; MIC [27]: > 128 mg/L; MIC [28]: > 128 mg/L; MIC [29]: > 128 mg/L; MIC [30]: > 128 mg/L; MIC [31]: 64 mg/L; MIC [32]: > 128 mg/L; MIC [33]: 64 mg/L; MIC [34]: 128 mg/L; MIC [35]: 128 mg/L; MIC [36]: > 128 mg/L
CO/N=C1\CN(c2nc3c(cc2F)c(=O)c(C(=O)O)cn3-c2nc(N)c(F)cc2F)CC1CN (stereo unspecified),7.13,2,16,> 128,128,128,128,32,> 128,> 128,> 128,> 128,> 128,4,16,32,32,32,0.5,0.5,MIC [19]: 64 mg/L; MIC [22]: 0.5 mg/L; MIC [23]: 0.25 mg/L; MIC [24]: > 128 mg/L; MIC [25]: 64 mg/L; MIC [26]: > 128 mg/L; MIC [27]: 64 mg/L; MIC [28]: 64 mg/L; MIC [29]: 64 mg/L; MIC [30]: 128 mg/L; MIC [37]: 64 mg/L; MIC [31]: 64 mg/L; MIC [32]: > 128 mg/L; MIC [33]: 64 mg/L; MIC [34]: 16 mg/L; MIC [35]: 16 mg/L; MIC [36]: 32 mg/L
Nc1nc(-n2cc(C(=O)O)c(=O)c3cc(F)c(N4CC/C(=N\OCc5ccccc5)C(O)C4)nc32)c(F)cc1F (stereo unspecified),> 32,16,128,> 128,> 128,> 128,> 128,> 128,> 128,> 128,> 128,64,> 128,128,128,128,128,128,2,4,MIC [19]: 128 mg/L; MIC [22]: 4 mg/L; MIC [23]: 4 mg/L; MIC [24]: > 128 mg/L; MIC [25]: > 128 mg/L; MIC [26]: > 128 mg/L; MIC [27]: > 128 mg/L; MIC [28]: > 128 mg/L; MIC [29]: > 128 mg/L; MIC [30]: > 128 mg/L; MIC [31]: 32 mg/L; MIC [32]: > 128 mg/L; MIC [33]: 32 mg/L; MIC [34]: > 128 mg/L; MIC [35]: > 128 mg/L; MIC [36]: > 128 mg/L
NC[C@H]1/C(=N/OCc2ccccc2)CN1c1nc2c(cc1F)c(=O)c(C(=O)O)cn2-c1nc(N)c(F)cc1F,> 32,4,64,> 128,> 128,> 128,> 128,128,> 128,> 128,> 128,> 128,> 128,64,128,128,128,128,2,2,MIC [22]: 4 mg/L; MIC [23]: 4 mg/L; MIC [24]: > 128 mg/L; MIC [25]: > 128 mg/L; MIC [26]: > 128 mg/L; MIC [27]: > 128 mg/L; MIC [28]: > 128 mg/L; MIC [29]: > 128 mg/L; MIC [30]: > 128 mg/L; MIC [37]: > 130 mg/L; MIC [31]: 64 mg/L; MIC [32]: > 128 mg/L; MIC [33]: 32 mg/L; MIC [34]: > 128 mg/L; MIC [35]: > 128 mg/L; MIC [36]: > 128 mg/L
